This is an account of results in US20180113119A1, “METHODS FOR CHARACTERIZING TIME-BASED HEPATOTOXICITY” (HUREL CORPORATION, priority 2015, published 2018).

Series [1] has as its system hepatocyte-stromal cell cocultures comprising rat primary hepatocytes. The procedure: (§1) Cell viability was analyzed using a CellTiter-Blue (Promega) assay, n=4.
(§2) These are concentration dependent toxicity curves generated after 6 days of repeat compound exposure in the 4 different species. Each compound was dosed every 2 days starting on day 0. On the 6th day the Promega Celltiter blue assay was used to measure the conversion of resazurin to the fluorescent resorufin.
(§3) Cryopreserved human hepatocytes were obtained from Thermo Fisher (formerly Life Technologies Corporation). Cryopreserved non-human primate (cynomolgus monkey) hepatocytes were obtained from Thermo Fisher (formerly Life Technologies Corporation). Cryopreserved dog hepatocytes were obtained from IVT Bioreclamation. Cryopreserved rat hepatocytes were obtained from Thermo Fisher (formerly Life Technologies Corporation). The cryopreserved hepatocytes were removed from liquid nitrogen and thawed. After thawing, cells were re-suspended in medium and cell number and cell viability was determined using trypan blue exclusion. Stromal cells were passed in a CO2 incubator until used for experimental plating. On plating day cells were detached from the plate, washed, and re-suspended in medium. Cell number and viability were determined using trypan blue exclusion.
(§4) The stromal cells were growth arrested prior to seeding.
(§5) The graphs in FIGS. 11-13 present concentration dependent toxicity curves generated after 6 days of repeat compound exposure in human, dog, primate, and rat. Each compound was dosed every two days for treatment periods of two days, four days, and six days across a full range of concentrations. On the sixth day a Promega Celltiter blue assay was used to measure mitochondrial metabolic activity. That data was then used to generate a TC50 value. […] In FIG. 11 cyclophosphamide was administered every two days for treatment periods of two days, four days, and six days across a full range of concentrations.

Series [2] deals with hepatocyte-stromal cell cocultures comprising human primary hepatocytes. The procedure: as §1, §2, §3, §4, §5
The test system of series [3] is hepatocyte-stromal cell cocultures comprising primate primary hepatocytes. The method, then: as §1, §2, §3, §4, §5
For series [4], the system named is hepatocyte-stromal cell cocultures comprising dog primary hepatocytes. The method, then:
as §1, §2, §3, §4, §5

The conditions of series [5]: known profile of reference compound; cited from earlier work.

The structures appear in SMILES notation. Like-named read-outs stand apart in the source and are kept apart here.

In the case of `O=P1(N(CCCl)CCCl)NCCCO1` (stereo not shown) [Cyclophosphamide], the “LC50 (TC50)” value in series [1] (Rat, 6 days of repeat exposure, dosed every 2 days, Celltiter blue) was 1,506 μM; in series [2] (Human, 6 days of repeat exposure, dosed every 2 days, Celltiter blue) it was 5,523 μM; in series [3] (Monkey, 6 days of repeat exposure, dosed every 2 days, Celltiter blue) it was 1,904 μM; in series [4] (Dog, 6 days of repeat exposure, dosed every 2 days, Celltiter blue), 7,541 μM. In addition, the “effect of multiple dosing on cytotoxicity (cell viability)” value in series [1] (rat, treatment periods of two, four and six days, CellTiter-Blue, n=4) is listed as “extending the duration of dosing increases the cyclophosphamide cytotoxicity”; in series [2] (human, treatment periods of two, four and six days, CellTiter-Blue, n=4), “extending the duration of dosing increases the cyclophosphamide cytotoxicity”; in series [3] (primate, treatment periods of two, four and six days, CellTiter-Blue, n=4), “extending the duration of dosing increases the cyclophosphamide cytotoxicity”; in series [4] (dog, treatment periods of two, four and six days, CellTiter-Blue, n=4) it was “extending the duration of dosing increases the cyclophosphamide cytotoxicity”.
For the compound `Cc1c(C)c2c(c(C)c1O)CCC(C)(COc1ccc(CC3SC(=O)NC3=O)cc1)O2` (stereo not shown) [Troglitazone], the “LC50 (TC50)” value in series [1] (rat, 6 days) is 317 µM; in series [2] (human, 6 days) it was 308 µM; in series [3] (cynomolgus monkey, 6 days), 207 µM; in series [4] (dog, 6 days), 267 µM.
As to `COc1ccccc1Oc1c(NS(=O)(=O)c2ccc(C(C)(C)C)cc2)nc(-c2ncccn2)nc1OCCO` [bosentan], in the series on human hepatocytes, the “LC50 (TC50) at 24 hours” value turned out to be 757 µM. For the same compound, in series [5], the “known in vivo hepatotoxicity” value is “strong in vivo hepatotoxicity”.
As for `CN(C)CCCN1c2ccccc2Sc2ccc(Cl)cc21` [chlorpromazine], the “LC50 (TC50) at 24 hours” value in the series on human hepatocytes is 21 µM.
With `CC(C)NCC(O)COc1cccc2ccccc12` (stereo not shown) [propranolol], the “known in vivo hepatotoxicity” value in series [5] is on record as “lack of hepatotoxicity”.
